This note sets out measurements from article PMC4232301 (Organic & biomolecular chemistry, 2012).

This test deals with [KS6AT6] (DEBS module 6 ketosynthase-acyltransferase didomain) (Saccharopolyspora erythraea, UniProt Q03133). The experiment in a line: LC-MS of tryptic digest, methylmalonyl transfer to holo-ACP2. It counts as biochemical. Particulars: acyl acceptor purified holo-ACP2; AT domain; 30 min.

SMILES strings stand for the structures.

Sequence of [KS6AT6] (DEBS module 6 ketosynthase-acyltransferase didomain) (Q03133 1475-2340 limits assumed): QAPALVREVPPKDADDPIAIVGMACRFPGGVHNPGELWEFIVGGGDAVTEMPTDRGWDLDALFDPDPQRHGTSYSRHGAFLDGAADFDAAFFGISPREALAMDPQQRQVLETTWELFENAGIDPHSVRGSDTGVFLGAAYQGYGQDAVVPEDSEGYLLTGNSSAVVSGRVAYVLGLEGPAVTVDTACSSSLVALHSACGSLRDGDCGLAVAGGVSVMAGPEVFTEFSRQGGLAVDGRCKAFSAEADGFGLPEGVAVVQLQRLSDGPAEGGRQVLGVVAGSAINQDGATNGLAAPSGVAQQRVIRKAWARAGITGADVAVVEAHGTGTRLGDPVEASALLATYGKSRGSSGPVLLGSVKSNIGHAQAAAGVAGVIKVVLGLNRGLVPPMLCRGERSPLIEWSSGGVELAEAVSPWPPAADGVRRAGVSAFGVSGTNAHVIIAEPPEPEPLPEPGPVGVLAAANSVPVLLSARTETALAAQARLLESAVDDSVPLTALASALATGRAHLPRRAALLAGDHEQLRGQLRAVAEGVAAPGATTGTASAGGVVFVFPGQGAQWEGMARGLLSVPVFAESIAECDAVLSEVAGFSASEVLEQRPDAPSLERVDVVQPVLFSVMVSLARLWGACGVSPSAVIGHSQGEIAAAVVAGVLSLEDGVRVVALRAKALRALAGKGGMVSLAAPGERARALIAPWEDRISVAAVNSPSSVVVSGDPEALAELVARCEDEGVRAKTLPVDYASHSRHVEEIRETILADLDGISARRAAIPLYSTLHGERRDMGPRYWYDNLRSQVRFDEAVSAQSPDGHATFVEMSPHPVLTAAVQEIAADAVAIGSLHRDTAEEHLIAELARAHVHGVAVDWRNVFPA

Consider `CC(C(=O)O)C(=O)SCCNC(=O)CCNC(=O)[C@H](O)C(C)(C)COP(=O)(O)OP(=O)(O)OC[C@H]1O[C@@H](n2cnc3c(N)ncnc32)[C@H](O)[C@@H]1OP(=O)(O)O` (stereo partly shown) [methylmalonyl-CoA], for which the “LC-MS of tryptic digest, methylmalonyl transfer to holo-ACP2” value was “purified ACP remains competent for AT-ACP methylmalonate transfer”.
